The results in this text go back to ChEMBL document CHEMBL5465560, “Selectivity Literature for EUbOPEN Chemogenomic Library” (2024).

The target of assay [1] is T1, Rhodopsin kinase GRK1 (Homo sapiens) (UniProt Q15835).
T1 sequence (whole entry): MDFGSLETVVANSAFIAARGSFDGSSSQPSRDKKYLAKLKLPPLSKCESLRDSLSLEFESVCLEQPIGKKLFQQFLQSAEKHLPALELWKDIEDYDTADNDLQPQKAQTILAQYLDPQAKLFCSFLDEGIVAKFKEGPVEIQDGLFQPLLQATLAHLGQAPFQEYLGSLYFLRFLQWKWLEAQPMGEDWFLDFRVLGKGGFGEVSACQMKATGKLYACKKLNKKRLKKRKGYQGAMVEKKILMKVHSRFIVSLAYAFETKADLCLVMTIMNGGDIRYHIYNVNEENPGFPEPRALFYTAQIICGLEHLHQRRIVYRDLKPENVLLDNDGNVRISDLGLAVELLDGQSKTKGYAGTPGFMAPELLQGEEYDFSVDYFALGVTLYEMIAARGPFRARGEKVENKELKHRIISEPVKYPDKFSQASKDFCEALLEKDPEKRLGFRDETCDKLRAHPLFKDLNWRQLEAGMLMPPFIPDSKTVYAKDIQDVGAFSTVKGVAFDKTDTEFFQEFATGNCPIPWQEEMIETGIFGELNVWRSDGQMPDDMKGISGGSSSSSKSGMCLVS
The assay is described as follows: Selectivity interaction (LanthaScreen Eu Kinase Binding Assay) EUB0001632a GRK1. The settings on record: at 10 µM. On the technique in general: Time-resolved FRET reads energy transfer from a long-lived donor to a nearby acceptor.

Assay [2] has as its target T2, Serine/threonine-protein kinase RIO3 (Homo sapiens) (UniProt O14730).
T2 sequence (whole entry): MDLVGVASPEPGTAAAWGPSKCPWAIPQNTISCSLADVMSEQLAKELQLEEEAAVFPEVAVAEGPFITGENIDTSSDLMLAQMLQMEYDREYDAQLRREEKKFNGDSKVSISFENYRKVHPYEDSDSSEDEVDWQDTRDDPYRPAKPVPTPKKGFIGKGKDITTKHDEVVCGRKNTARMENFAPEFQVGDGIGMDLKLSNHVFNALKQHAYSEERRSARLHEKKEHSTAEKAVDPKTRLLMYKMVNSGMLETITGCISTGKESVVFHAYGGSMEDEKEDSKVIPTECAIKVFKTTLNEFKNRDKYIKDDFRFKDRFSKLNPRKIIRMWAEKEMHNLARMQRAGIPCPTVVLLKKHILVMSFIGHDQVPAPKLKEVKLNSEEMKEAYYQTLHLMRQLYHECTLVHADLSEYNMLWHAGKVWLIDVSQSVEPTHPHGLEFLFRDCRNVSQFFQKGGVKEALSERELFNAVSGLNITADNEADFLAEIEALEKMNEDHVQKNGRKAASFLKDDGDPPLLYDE
Description: Selectivity interaction (KinomeScan (DiscoverX)) EUB0000607a RIOK3. The settings on record: at 10 µM.

Assay [3] deals with Cyclin-dependent kinase 9 (Homo sapiens, UniProt P50750). Description: Selectivity interaction (Z-Lyte kinase biochemical assay, conc. ATP = Km(app), Thermo Fisher Scientific) EUB0001558a CDK9.
The target of assay [4] is T3, Alpha-1B adrenergic receptor (Homo sapiens) (UniProt P35368).
T3 sequence (whole entry): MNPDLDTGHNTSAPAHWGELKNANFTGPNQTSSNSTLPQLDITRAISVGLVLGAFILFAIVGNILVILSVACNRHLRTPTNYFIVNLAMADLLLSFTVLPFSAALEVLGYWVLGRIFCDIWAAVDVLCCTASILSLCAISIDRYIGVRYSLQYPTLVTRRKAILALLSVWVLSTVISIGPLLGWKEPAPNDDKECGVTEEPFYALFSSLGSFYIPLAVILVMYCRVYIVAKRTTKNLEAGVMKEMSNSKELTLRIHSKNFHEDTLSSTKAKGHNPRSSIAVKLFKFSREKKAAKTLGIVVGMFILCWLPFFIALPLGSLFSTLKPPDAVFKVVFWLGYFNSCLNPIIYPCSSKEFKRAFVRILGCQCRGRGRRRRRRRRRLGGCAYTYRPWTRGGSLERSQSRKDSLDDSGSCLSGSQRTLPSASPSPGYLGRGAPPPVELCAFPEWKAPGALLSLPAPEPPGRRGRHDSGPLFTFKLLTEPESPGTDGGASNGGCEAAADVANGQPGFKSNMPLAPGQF
Description: Selectivity interaction (GPCR panel (PDSP screen)) EUB0001079a ADRA1B. Conditions: at 10 µM.

The target of assay [5] is T4, Cyclin-dependent kinase-like 5 (Homo sapiens) (UniProt O76039).
T4 sequence (whole entry): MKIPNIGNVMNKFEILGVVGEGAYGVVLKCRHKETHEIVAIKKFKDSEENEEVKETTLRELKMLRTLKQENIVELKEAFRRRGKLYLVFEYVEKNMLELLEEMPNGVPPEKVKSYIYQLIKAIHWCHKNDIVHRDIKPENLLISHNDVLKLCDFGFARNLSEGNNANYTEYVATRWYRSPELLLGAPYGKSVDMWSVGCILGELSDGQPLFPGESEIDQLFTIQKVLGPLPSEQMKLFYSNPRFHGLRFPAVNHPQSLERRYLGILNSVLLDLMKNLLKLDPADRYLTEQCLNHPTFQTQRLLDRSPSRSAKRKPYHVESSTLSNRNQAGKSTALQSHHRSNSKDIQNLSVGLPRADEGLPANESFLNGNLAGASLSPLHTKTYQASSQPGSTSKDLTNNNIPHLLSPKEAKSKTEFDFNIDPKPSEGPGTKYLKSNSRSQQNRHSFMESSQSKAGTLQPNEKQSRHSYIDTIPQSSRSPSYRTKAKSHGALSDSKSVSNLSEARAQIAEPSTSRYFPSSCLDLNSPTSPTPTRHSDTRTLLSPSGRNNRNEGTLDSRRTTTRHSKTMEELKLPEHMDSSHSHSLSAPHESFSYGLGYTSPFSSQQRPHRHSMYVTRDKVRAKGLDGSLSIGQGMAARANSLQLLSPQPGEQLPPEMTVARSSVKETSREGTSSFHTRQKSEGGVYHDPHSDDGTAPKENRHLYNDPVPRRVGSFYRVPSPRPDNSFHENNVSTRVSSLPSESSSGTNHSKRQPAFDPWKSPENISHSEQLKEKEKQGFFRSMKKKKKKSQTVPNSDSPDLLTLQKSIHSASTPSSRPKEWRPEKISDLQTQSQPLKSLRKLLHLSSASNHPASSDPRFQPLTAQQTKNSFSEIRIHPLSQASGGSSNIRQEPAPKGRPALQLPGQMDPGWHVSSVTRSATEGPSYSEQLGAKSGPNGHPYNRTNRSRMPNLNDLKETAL
The assay is described as follows: Selectivity interaction (KinomeScan (DiscoverX)) EUB0001049a CDKL5. The settings on record: at 1 µM.

SMILES strings stand for the structures.

Cyclin-dependent kinase 9, sequence (P50750 whole entry): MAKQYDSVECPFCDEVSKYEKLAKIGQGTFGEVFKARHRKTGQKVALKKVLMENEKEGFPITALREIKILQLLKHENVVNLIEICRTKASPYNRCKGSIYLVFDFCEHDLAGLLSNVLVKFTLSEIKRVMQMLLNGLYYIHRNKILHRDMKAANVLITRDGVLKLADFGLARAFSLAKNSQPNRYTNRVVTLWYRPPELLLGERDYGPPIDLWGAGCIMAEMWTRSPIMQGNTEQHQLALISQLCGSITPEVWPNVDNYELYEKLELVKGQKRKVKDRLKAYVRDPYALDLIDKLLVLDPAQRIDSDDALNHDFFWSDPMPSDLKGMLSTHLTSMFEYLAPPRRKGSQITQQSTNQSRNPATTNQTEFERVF

Consider `Cn1cc(-n2cnc3c(NCc4nc5cc(Cl)c(Cl)cc5[nH]4)nc(N4CCOCC4)nc32)cn1`, for which the % of inhibition in assay [1] was -16.5%.
`CNC(=O)Nc1ccc(-c2nc(N3CC4CCC(C3)O4)c3cnn(C4CCC5(CC4)OCCO5)c3n2)cc1` returned a % of control in assay [2] of 100%.
Molecule `CC(C)(O)[C@H](F)CN1Cc2cc(NC(=O)c3cnn4cccnc34)c(N3CCOCC3)cc2C1=O` returned an IC50 in assay [3] of 966 nM.
For `Nc1cnc(N2CCc3cc(S(=O)(=O)Nc4c(F)cc(Cl)cc4F)cc(N4CCCC4=O)c32)nc1` [TP-020n], the % of inhibition in assay [4] was 4.68%.
Turning to `COc1cc(Nc2nc(C)cc(-c3cnn4nc(OC)ccc34)n2)cc(C(F)(F)F)c1`, the % of control in assay [5] was determined as 82%.

By IC50 is commonly meant the concentration that inhibits the measured activity by half.
